Experimental data published in patent publication US20190364899A1, “MICROBIOCIDAL OXADIAZOLE DERIVATIVES” (SYNGENTA PARTICIPATIONS AG, priority 2015, published 2019).

Tests used:
[1] = system: Phakopsora pachyrhizi; experiment: Fungicidal activity against Phakopsora pachyrhizi / soybean / leaf disc preventative (Asian soybean rust); type: in vivo; details: foliar, 200 ppm in the applied formulation, soybean leaf disks, inoculated one day after application, compared to untreated, read-out: disease control
Description: (§1) General examples of leaf disk tests in well plates: Leaf disks or leaf segments of various plant species are cut from plants grown in a greenhouse. The cut leaf disks or segments are placed in multiwell plates (24-well format) onto water agar. The leaf disks are sprayed with a test solution before (preventative) or after (curative) inoculation. Compounds to be tested are prepared as DMSO solutions (max. 10 mg/ml) which are diluted to the appropriate concentration with 0.025% Tween20 just before spraying. The inoculated leaf disks or segments are incubated under defined conditions (temperature, relative humidity, light, etc.) according to the respective test system. A single evaluation of disease level is carried out 3 to 14 days after inoculation, depending on the pathosystem. Percent disease control relative to the untreated check leaf disks or segments is then calculated. General examples of liquid culture tests in well plates: Mycelia fragments or conidia suspensions of a fungus prepared either freshly from liquid cultures of the fungus or from cryogenic storage, are directly mixed into nutrient broth. DMSO solutions of the test compound (max. 10 mg/ml) are diluted with 0.025% Tween20 by a factor of 50 and 10 μl of this solution is pipetted into a microtiter plate (96-well format). The nutrient broth containing the fungal spores/mycelia fragments is then added to give an end concentration of the tested compound. The test plates are incubated in the dark at 24° C. and 96% relative humidity. The inhibition of fungal growth is determined photometrically after 2 to 7 days, depending on the pathosystem, and percent antifungal activity relative to the untreated check is calculated.
Example 3: Fungicidal Activity Against Phakopsora pachyrhizi/Soybean/Leaf Disc Preventative (Asian Soybean Rust)
Soybean leaf disks are placed on water agar in multiwell plates (24-well format) and sprayed with the formulated test compound diluted in water. One day after application leaf discs are inoculated by spraying a spore suspension on the lower leaf surface. After an incubation period in a climate cabinet of 24-36 hours in darkness at 20° C. and 75% rh leaf disc are kept at 20° C. with 12 h light/day and 75% rh. The activity of a compound is assessed as percent disease control compared to untreated when an appropriate level of disease damage appears in untreated check leaf disks (12 to 14 days after application).
(§2) The following compounds at 200 ppm in the applied formulation give at least 80% disease control in this test when compared to untreated control leaf disks under the same conditions, which show extensive disease development.

[2] = system: Puccinia Recondite f. Sp. Tritici; experiment: Fungicidal activity against Puccinia recondita f. sp. tritici / wheat / leaf disc curative (brown rust); type: in vivo; details: foliar, 24 h, 200 ppm in the applied formulation, wheat leaf segments cv. Kanzler, applied 1 day after inoculation, compared to untreated, read-out: disease control
Description: as §1
Example 2: Fungicidal Activity Against Puccinia Recondite f. Sp. Tritici Wheat/Leaf Disc Curative (Brown Rust)
Wheat leaf segments cv. Kanzler are placed on agar in multiwell plates (24-well format). The leaf segments are then inoculated with a spore suspension of the fungus. Plates were stored in darkness at 19° C. and 75% relative humidity. The formulated test compound diluted in water was applied 1 day after inoculation. The leaf segments were incubated at 19° C. and 75% relative humidity under a light regime of 12 hours light/12 hours darkness in a climate cabinet and the activity of a compound was assessed as percent disease control compared to untreated when an appropriate level of disease damage appears in untreated check leaf segments (6 to 8 days after application).
as §2

[3] = system: Puccinia recondita f, Sp. Tritici; experiment: Fungicidal activity against Puccinia recondita f. sp. tritici / wheat / leaf disc preventative (brown rust); type: in vivo; details: foliar, 200 ppm in the applied formulation, wheat leaf segments cv. Kanzler, inoculated 1 day after application, compared to untreated, read-out: disease control
Description: as §1
Example 1: Fungicidal Activity Against Puccinia recondita f, Sp. Tritici/Wheat/Leaf Disc Preventative (Brown Rust)
Wheat leaf segments cv. Kanzler were placed on agar in multiwell plates (24-well format) and sprayed with the formulated test compound diluted in water. The leaf disks were inoculated with a spore suspension of the fungus 1 day after application. The inoculated leaf segments were incubated at 19° C. and 75% relative humidity (rh) under a light regime of 12 hours light/12 hours darkness in a climate cabinet and the activity of a compound was assessed as percent disease control compared to untreated when an appropriate level of disease damage appears in untreated check leaf segments (7 to 9 days after application).
as §2

[4] = system: Glomerella Lagenarium (Colletotrichum Lagenarium); experiment: Fungicidal activity against Glomerella lagenarium (Colletotrichum lagenarium) liquid culture / cucumber / preventative (anthracnose); type: cell-based; details: Colletotrichum orbiculare; 20 ppm in the applied formulation; liquid culture in PDB, growth inhibition measured photometrically 3 to 4 days after application; compared to untreated; read-out: disease control
Description: as §1
Example 4: Fungicidal Activity Against Glomerella Lagenarium (Colletotrichum Lagenarium) Liquid Culture/Cucumber/Preventative (Anthracnose)
Conidia of the fungus from cryogenic storage are directly mixed into nutrient broth (PDB—potato dextrose broth). After placing a (DMSO) solution of test compound into a microtiter plate (96-well format), the nutrient broth containing the fungal spores is added. The test plates are incubated at 24° C. and the inhibition of growth is measured photometrically 3 to 4 days after application.
The following compounds at 20 ppm in the applied formulation give at least 80% disease control in this test when compared to untreated control under the same conditions, which show extensive disease development.

In the case of `O=C(NCc1ccc(-c2noc(C(F)(F)F)n2)c(F)c1)NC1CC1` [Compound 2.20, 1-cyclopropyl-3-[[3-fluoro-4-[5-(trifluoromethyl)-1,2,4-oxadiazol-3-yl]phenyl]methyl]urea], the pest or weed control at 200 ppm [1] is reported as ≥ 80%, the pest or weed control at 200 ppm [2] is reported as ≥ 80% and the melting point is reported as 169 to 173 °C. The pest or weed control at 200 ppm [3] was ≥ 80% and the inhibition of growth at 20 ppm [4] was ≥ 80%.

In the case of `O=C(NCc1ccc(-c2noc(C(F)(F)F)n2)cc1)n1ccnc1` [Compound 3.1, N-[[4-[5-(trifluoromethyl)-1,2,4-oxadiazol-3-yl]phenyl]methyl] imidazole-1-carboxamide], the pest or weed control at 200 ppm [1] is reported as ≥ 80%, the pest or weed control at 200 ppm [2] is reported as ≥ 80% and the melting point is reported as 97 to 102 °C. The pest or weed control at 200 ppm [3] was ≥ 80% and the inhibition of growth at 20 ppm [4] was ≥ 80%.

With `O=C(NCc1ccc(-c2noc(C(F)(F)F)n2)cc1)OC1CCOCC1` [Compound 1.2, tetrahydropyran-4-yl N-[[4-[5-(trifluoromethyl)-1,2,4-oxadiazol-3-yl]phenyl]methyl]carbamate] the pest or weed control at 200 ppm [1] was ≥ 80%, the pest or weed control at 200 ppm [2] was ≥ 80% and the melting point was 104 to 106 °C. The pest or weed control at 200 ppm [3] was ≥ 80% and the inhibition of growth at 20 ppm [4] was ≥ 80%.

In the case of `O=C(NCc1ccc(-c2noc(C(F)(F)F)n2)cc1F)OC1CCOCC1` [Compound 1.1, tetrahydropyran-4-yl N-[[2-fluoro-4-[5-(trifluoromethyl)-1,2,4-oxadiazol-3-yl)phenyl]methyl) carbamate], the pest or weed control at 200 ppm [1] is reported as ≥ 80%, the pest or weed control at 200 ppm [2] is reported as ≥ 80% and the melting point is reported as 105 to 108 °C. For the same compound, the pest or weed control at 200 ppm [3] was ≥ 80% and the inhibition of growth at 20 ppm [4] was ≥ 80%.

In the case of `O=C(NCc1ccc(-c2noc(C(F)(F)F)n2)cc1)NCC1CC1` [Compound 2.1, 1-(cyclopropylmethyl)-3-[[4-[5-(trifluoromethyl)-1,2,4-oxadiazol-3-yl]phenyl]methyl]urea], the pest or weed control at 200 ppm [1] is reported as ≥ 80%, the melting point is reported as 158.8 to 165 °C and the pest or weed control at 200 ppm [3] is reported as ≥ 80%. For the same compound, the inhibition of growth at 20 ppm [4] was ≥ 80%.

For `O=C(NCc1ccc(-c2noc(C(F)(F)F)n2)c(F)c1)Nc1ccccc1Cl` [Compound 2.21, 1-(2-chlorophenyl)-3-[[3-fluoro-4-[5-(trifluoromethyl)-1,2,4-oxadiazol-3-yl]phenyl]methyl]urea], the melting point was 173 to 178 °C and the pest or weed control at 200 ppm [3] was ≥ 80%.

With `O=C(NCc1ccc(-c2noc(C(F)(F)F)n2)cc1)OCC1CC1` [Compound 1.3, cyclopropylmethyl N-[[4-[5-(trifluoromethyl)-1,2,4-oxadiazol-3-yl]phenyl]methyl] carbamate] the pest or weed control at 200 ppm [1] was ≥ 80%, the pest or weed control at 200 ppm [2] was ≥ 80% and the melting point was 108.2 to 109.8 °C. The pest or weed control at 200 ppm [3] was ≥ 80% and the inhibition of growth at 20 ppm [4] was ≥ 80%.

For `O=C(NCc1ccc(-c2noc(C(F)(F)F)n2)c(F)c1)N1CCOCC1` [Compound 3.3, N-[[3-fluoro-4-[5-(trifluoromethyl)-l,2,4-oxadiazol-3-yl]phenyl]methyl] morpholine-4-carboxamide], the pest or weed control at 200 ppm [2] was ≥ 80%, the melting point was 82 to 94 °C and the pest or weed control at 200 ppm [3] was ≥ 80%. For the same compound, the inhibition of growth at 20 ppm [4] was ≥ 80%.

For `O=C(NCc1ccc(-c2noc(C(F)(F)F)n2)cc1)N1CCOCC1` [Compound 3.2, N-[[4-[5-(trifluoromethyl)-1,2,4-oxadiazol-3-yl]phenyl]methyl] morpholine-4-carboxamide], the pest or weed control at 200 ppm [1] was ≥ 80%, the pest or weed control at 200 ppm [2] was ≥ 80% and the melting point was 112 to 115 °C. For the same compound, the pest or weed control at 200 ppm [3] was ≥ 80% and the inhibition of growth at 20 ppm [4] was ≥ 80%.

With `O=C(NCc1ccc(-c2noc(C(F)(F)F)n2)cc1)N1CCCO1` [Compound 3.5, N-[[4-[5-(trifluoromethyl)-l,2,4-oxadiazol-3-yl]phenyl]methyl] isoxazolidine-2-carboxamide] the pest or weed control at 200 ppm [1] was ≥ 80%, the pest or weed control at 200 ppm [2] was ≥ 80% and the pest or weed control at 200 ppm [3] was ≥ 80%. The inhibition of growth at 20 ppm [4] was ≥ 80%.

For `O=C(NCc1ccc(-c2noc(C(F)(F)F)n2)cc1F)NC1CC1` [Compound 2.4, 1-cyclopropyl-3-[[2-fluoro-4-[5-(trifluoromethyl)-1,2,4-oxadiazol-3-yl]phenyl]methyl]urea], the pest or weed control at 200 ppm [1] was ≥ 80%, the pest or weed control at 200 ppm [2] was ≥ 80% and the melting point was 150.1 to 152.4 °C. For the same compound, the pest or weed control at 200 ppm [3] was ≥ 80% and the inhibition of growth at 20 ppm [4] was ≥ 80%.

With `C#CCN(C(=O)NCc1ccc(-c2noc(C(F)(F)F)n2)cc1)C1CC1` [Compound 2.30, 1-cyclopropyl-1-prop-2-ynyl-3-[[4-[5-(trifluoromethyl)-1,2,4-oxadiazol-3-yl]phenyl]methyl]urea] the pest or weed control at 200 ppm [1] was ≥ 80%, the pest or weed control at 200 ppm [2] was ≥ 80% and the pest or weed control at 200 ppm [3] was ≥ 80%. For the same compound, the inhibition of growth at 20 ppm [4] was ≥ 80%.

`O=C(NCCc1ccc(-c2noc(C(F)(F)F)n2)cc1)NC1CC1` [Compound 2.32, 1-cyclopropyl-3-[2-[4-[5-(trifluoromethyl)-1,2,4-oxadiazol-3-yl]phenyl]ethyl]urea] gave a melting point of 147 to 159 °C.

For `O=C(NCc1ccc(-c2noc(C(F)(F)F)n2)cc1)N1CCCC1` [Compound 3.4, N-[[4-[5-(trifluoromethyl)-l,2,4-oxadiazol-3-yl]phenyl]methyl] pyrrolidine-1-carboxamide], the pest or weed control at 200 ppm [1] was ≥ 80%, the pest or weed control at 200 ppm [2] was ≥ 80% and the pest or weed control at 200 ppm [3] was ≥ 80%. The inhibition of growth at 20 ppm [4] was ≥ 80%.

For `COCC1(N(C)C(=O)NCc2ccc(-c3noc(C(F)(F)F)n3)cc2)CC1` [Compound 2.28, 1-[1-(methoxymethyl)cyclopropyl]-1-methyl-3-[[4-[5-(trifluoromethyl)-1,2,4-oxadiazol-3-yl]phenyl]methyl]urea], the pest or weed control at 200 ppm [1] was ≥ 80%, the pest or weed control at 200 ppm [2] was ≥ 80% and the pest or weed control at 200 ppm [3] was ≥ 80%. The inhibition of growth at 20 ppm [4] was ≥ 80%.

For `O=C(NCc1ccc(-c2noc(C(F)(F)F)n2)cc1F)NCC1CC1` [Compound 2.2, 1-(cyclopropylmethyl)-3-[[2-fluoro-4-[5-(trifluoromethyl)-1,2,4-oxadiazol-3-yl]phenyl]methyl]urea], the pest or weed control at 200 ppm [1] was ≥ 80%, the melting point was 157 to 160 °C and the inhibition of growth at 20 ppm [4] was ≥ 80%.

For `CN(CC1CC1)C(=O)NCc1ccc(-c2noc(C(F)(F)F)n2)cc1` [Compound 2.31, 1-(cyclopropylmethyl)-1-methyl-3-[[4-[5-(trifluoromethyl)-1,2,4-oxadiazol-3-yl]phenyl]methyl]urea], the pest or weed control at 200 ppm [1] was ≥ 80%, the pest or weed control at 200 ppm [2] was ≥ 80% and the pest or weed control at 200 ppm [3] was ≥ 80%. For the same compound, the inhibition of growth at 20 ppm [4] was ≥ 80%.

In the case of `CN(C(=O)NCc1ccc(-c2noc(C(F)(F)F)n2)cc1)C1CC1` [Compound 2.22, 1-cyclopropyl-1-methyl-3-[[4-[5-(trifluoromethyl)-1,2,4-oxadiazol-3-yl]phenyl]methyl]urea], the pest or weed control at 200 ppm [1] is reported as ≥ 80%, the pest or weed control at 200 ppm [2] is reported as ≥ 80% and the pest or weed control at 200 ppm [3] is reported as ≥ 80%. The inhibition of growth at 20 ppm [4] was ≥ 80%.
